Test results from patent US12568972B2, “Pyridazinol compounds and derivatives, preparation methods, herbicidal compositions and applications thereof” (Qingdao Kingagroot Chemical Compound Co., Ltd., priority 2018, dated 2026).

How the values were obtained:
Test in all cases: Post-emergence test, weed control effect
Format in all cases: in vivo
Settings in all cases: after 3 weeks
Chenopodiaceae = system: Chenopodiaceae
Method in brief: (§1)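 Weeds grown from seed in soil-filled pots in a greenhouse were sprayed at the 2-3 leaf stage, 2-3 weeks after sowing, with compound in acetone/Tween-80/water plus 80% vegetable oil methyl ester synergist at 1500 g/ha. Fresh-weight inhibition was scored on a 0-10 scale after 3 weeks.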

Veronica polita = system: Veronica polita
Method in brief: as §1

Rorippa indica = system: Rorippa indica
Method in brief: as §1

Amaranthus retroflexus = system: Amaranthus retroflexus
Method in brief: as §1

O=[N+]([O-])c1ccc(Cl)c(-c2nnc(C(F)(F)F)cc2O)c1 [Compound 69]
10: weed control effect (activity level), Chenopodiaceae (Chenopodiaceae; dose 1000 g/ha) | weed control effect (activity level), Veronica polita (Veronica polita; dose 1000 g/ha) | weed control effect (activity level), Rorippa indica (Rorippa indica; dose 1000 g/ha) | weed control effect (activity level), Amaranthus retroflexus (Amaranthus retroflexus; dose 1000 g/ha)

CCCCCC(=O)Oc1cc(C(F)(F)F)nnc1-c1ccc(C#N)cc1 [Compound 1-10]
10: weed control effect, Chenopodiaceae (activity level) (Chenopodiaceae; Dose 3000 g/ha) | weed control effect, Veronica polita (activity level) (Veronica polita; Dose 3000 g/ha) | weed control effect, Rorippa indica (activity level) (Rorippa indica; Dose 3000 g/ha) | weed control effect, Amaranthus retroflexus (activity level) (Amaranthus retroflexus; Dose 3000 g/ha)

CC(C)(C)CSC(=O)Oc1cc(C(F)(F)F)nnc1-c1cccc(Br)c1 [Compound 1-51]
10: weed control effect, Chenopodiaceae (activity level) (Chenopodiaceae; Dose 3000 g/ha) | weed control effect, Veronica polita (activity level) (Veronica polita; Dose 3000 g/ha) | weed control effect, Rorippa indica (activity level) (Rorippa indica; Dose 3000 g/ha) | weed control effect, Amaranthus retroflexus (activity level) (Amaranthus retroflexus; Dose 3000 g/ha)

Oc1cc(C(F)(F)F)nnc1-c1ccccc1Br [Compound 772]
10: weed control effect (activity level), Chenopodiaceae (Chenopodiaceae; Dose 3000 g/ha) | weed control effect (activity level), Veronica polita (Veronica polita; Dose 3000 g/ha) | weed control effect (activity level), Rorippa indica (Rorippa indica; Dose 3000 g/ha) | weed control effect (activity level), Amaranthus retroflexus (Amaranthus retroflexus; Dose 3000 g/ha)

Oc1cc(C(F)(F)F)nnc1-c1cnc(Cl)c(F)c1 [Compound 1006]
10: weed control effect (activity level), Chenopodiaceae (Chenopodiaceae; Dose 3000 g/ha) | weed control effect (activity level), Veronica polita (Veronica polita; Dose 3000 g/ha) | weed control effect (activity level), Rorippa indica (Rorippa indica; Dose 3000 g/ha) | weed control effect (activity level), Amaranthus retroflexus (Amaranthus retroflexus; Dose 3000 g/ha)

CC/C(CC(C)CC)=N/Oc1cc(C(F)(F)F)nnc1-c1ccnn1C (stereo not drawn) [Compound 1-179]
10: weed control effect, Chenopodiaceae (activity level) (Chenopodiaceae; Dose 3000 g/ha) | weed control effect, Veronica polita (activity level) (Veronica polita; Dose 3000 g/ha) | weed control effect, Rorippa indica (activity level) (Rorippa indica; Dose 3000 g/ha) | weed control effect, Amaranthus retroflexus (activity level) (Amaranthus retroflexus; Dose 3000 g/ha)

CCCCCCOC(=O)Oc1cc(C(F)(F)F)nnc1-c1ccc(Cl)c([N+](=O)[O-])c1 [Compound 1-35]
10: weed control effect, Chenopodiaceae (activity level) (Chenopodiaceae; Dose 3000 g/ha) | weed control effect, Veronica polita (activity level) (Veronica polita; Dose 3000 g/ha) | weed control effect, Rorippa indica (activity level) (Rorippa indica; Dose 3000 g/ha) | weed control effect, Amaranthus retroflexus (activity level) (Amaranthus retroflexus; Dose 3000 g/ha)

COc1ccc(-c2nnc(C(F)(F)F)cc2O)cn1 [Compound 226]
10: weed control effect (activity level), Chenopodiaceae (Chenopodiaceae; dose 2000 g/ha) | weed control effect (activity level), Veronica polita (Veronica polita; dose 2000 g/ha) | weed control effect (activity level), Rorippa indica (Rorippa indica; dose 2000 g/ha) | weed control effect (activity level), Amaranthus retroflexus (Amaranthus retroflexus; dose 2000 g/ha)

Cn1nc(C(F)F)cc1-c1nnc(C(F)(F)F)cc1O [Compound 794]
10: weed control effect (activity level), Chenopodiaceae (Chenopodiaceae; Dose 3000 g/ha) | weed control effect (activity level), Veronica polita (Veronica polita; Dose 3000 g/ha) | weed control effect (activity level), Rorippa indica (Rorippa indica; Dose 3000 g/ha) | weed control effect (activity level), Amaranthus retroflexus (Amaranthus retroflexus; Dose 3000 g/ha)

Oc1cc(C(F)(F)F)nnc1-c1ccc(Cl)c(F)c1 [Compound 745]
10: weed control effect (activity level), Chenopodiaceae (Chenopodiaceae; Dose 3000 g/ha) | weed control effect (activity level), Veronica polita (Veronica polita; Dose 3000 g/ha) | weed control effect (activity level), Rorippa indica (Rorippa indica; Dose 3000 g/ha) | weed control effect (activity level), Amaranthus retroflexus (Amaranthus retroflexus; Dose 3000 g/ha)

O=C(Oc1cc(C(F)(F)F)nnc1-c1ccc(F)cc1)c1ccc(Cl)cc1Cl [Compound 1-91]
10: weed control effect, Chenopodiaceae (activity level) (Chenopodiaceae; Dose 3000 g/ha) | weed control effect, Veronica polita (activity level) (Veronica polita; Dose 3000 g/ha) | weed control effect, Rorippa indica (activity level) (Rorippa indica; Dose 3000 g/ha) | weed control effect, Amaranthus retroflexus (activity level) (Amaranthus retroflexus; Dose 3000 g/ha)

Cn1nc(Br)cc1-c1nnc(C(F)(F)F)cc1O [Compound 777]
10: weed control effect (activity level), Chenopodiaceae (Chenopodiaceae; Dose 3000 g/ha) | weed control effect (activity level), Veronica polita (Veronica polita; Dose 3000 g/ha) | weed control effect (activity level), Rorippa indica (Rorippa indica; Dose 3000 g/ha) | weed control effect (activity level), Amaranthus retroflexus (Amaranthus retroflexus; Dose 3000 g/ha)

CCCCOC(=O)Oc1cc(C(F)(F)F)nnc1-c1ccc(F)cc1 [Compound 1-29]
10: weed control effect, Chenopodiaceae (activity level) (Chenopodiaceae; Dose 3000 g/ha) | weed control effect, Veronica polita (activity level) (Veronica polita; Dose 3000 g/ha) | weed control effect, Rorippa indica (activity level) (Rorippa indica; Dose 3000 g/ha) | weed control effect, Amaranthus retroflexus (activity level) (Amaranthus retroflexus; Dose 3000 g/ha)

COC(=O)CCCCC(=O)Oc1cc(C(F)(F)F)nnc1-c1ccc(F)cc1 [Compound 1-70]
10: weed control effect, Chenopodiaceae (activity level) (Chenopodiaceae; Dose 3000 g/ha) | weed control effect, Veronica polita (activity level) (Veronica polita; Dose 3000 g/ha) | weed control effect, Rorippa indica (activity level) (Rorippa indica; Dose 3000 g/ha) | weed control effect, Amaranthus retroflexus (activity level) (Amaranthus retroflexus; Dose 3000 g/ha)

Cn1nc(Cl)cc1-c1nnc(C(F)(F)F)cc1O [Compound 776]
10: weed control effect (activity level), Chenopodiaceae (Chenopodiaceae; Dose 3000 g/ha) | weed control effect (activity level), Veronica polita (Veronica polita; Dose 3000 g/ha) | weed control effect (activity level), Rorippa indica (Rorippa indica; Dose 3000 g/ha) | weed control effect (activity level), Amaranthus retroflexus (Amaranthus retroflexus; Dose 3000 g/ha)

Cc1cc(C)c(S(=O)(=O)Oc2cc(C(F)(F)F)nnc2-c2ccccc2)c(C)c1 [Compound 1-131]
10: weed control effect, Chenopodiaceae (activity level) (Chenopodiaceae; Dose 3000 g/ha) | weed control effect, Veronica polita (activity level) (Veronica polita; Dose 3000 g/ha) | weed control effect, Rorippa indica (activity level) (Rorippa indica; Dose 3000 g/ha) | weed control effect, Amaranthus retroflexus (activity level) (Amaranthus retroflexus; Dose 3000 g/ha)

CC(C)COC(=S)Oc1cc(C(F)(F)F)nnc1-c1ccc(Cl)cc1Cl [Compound 1-158]
10: weed control effect, Chenopodiaceae (activity level) (Chenopodiaceae; Dose 3000 g/ha) | weed control effect, Veronica polita (activity level) (Veronica polita; Dose 3000 g/ha) | weed control effect, Rorippa indica (activity level) (Rorippa indica; Dose 3000 g/ha) | weed control effect, Amaranthus retroflexus (activity level) (Amaranthus retroflexus; Dose 3000 g/ha)

Oc1cc(C(F)(F)F)nnc1-c1ccc(Br)cc1 [Compound 28]
10: weed control effect (activity level), Chenopodiaceae (Chenopodiaceae; dose 1000 g/ha) | weed control effect (activity level), Veronica polita (Veronica polita; dose 1000 g/ha) | weed control effect (activity level), Rorippa indica (Rorippa indica; dose 1000 g/ha) | weed control effect (activity level), Amaranthus retroflexus (Amaranthus retroflexus; dose 1000 g/ha)
